Experimental data: paper PMC11515993, “ZSTK474 targeting PIK3R3 inhibits the Wilms’ tumor through G0 / G1 phase arrest” (PLOS ONE, 2024)
pIC50: −log10 of the molar value.

What was measured:
WiT49 and WT-CLS1 cells [1] = experiment: Cell cycle assay by flow cytometry; type: cell-based; conditions: different concentrations, 48 hours
Protocol: The assessment of cell cycle progression after exposure to different concentrations of ZSTK474 was conducted using the BD Cell Cycle Assay Kit from Dojindo, Japan. In accordance with standardized procedures, WT-CLS1 and WiT49 cells were cultured for 48 hours, then fixed in 75% ethanol for an additional 48 hours. Following this, the cells were centrifuged, resuspended twice in PBS, and stained with propidium iodide and RNase at 37°C for 30 minutes. Lastly, cell cycle distribution was assessed through flow cytometry.

WiT49 and WT-CLS1 cells [2] = experiment: CCK-8 growth curves; type: cell-based; conditions: 1/2, 1 and 2 times IC50; 0, 24, 48, 72 hours
Protocol: (§1) The assessment of cell proliferation was conducted utilizing the CCK-8 assay sourced from MCE (HY-K0301, USA). Following detachment utilizing 0.25% trypsin, WiT49 (2.5×10^3) and WT-CLS1 (3×10^3) cells were cultured in 96-well plates. Following adhesion, cells were subjected to varying doses of ZSTK474 (0–32 μM) for a duration of 48 hours. Following a 2-hour incubation with culture medium (90 μL) and CCK-8 reagent (10 μL) at 37°C, the measurement of the absorbance at 450 nm was conducted to measure the IC50 value of ZSTK474. Following this, the cells were treated with ZSTK474 at concentrations equivalent to 1/2, 1, and 2 times the IC50 value. Growth curves were subsequently plotted at 0, 24, 48, and 72 hours post-incubation.

[3] = parameters: method as in PMID 16622124; conditions: chronic oral administration, 800 mg/kg, cited from earlier work
[4] = In vivo safety in WiT49 tumor-bearing mice (body weight, blood and serum tests, organ HE staining); conditions: two weeks; for ALT / AST / BUN / CK / CRE: tumor-bearing nude mice
Protocol: (§2) The in vivo experiments were approved by the Institutional Animal Care and Use Committee of Chongqing Medical University (approval number: CHCMU-IACUC20220323001). After being sourced from the Animal Research Center at Chongqing Medical University, BALB/C nude mice (male, 3 weeks old) were housed in stainless steel cages in a ventilated animal room. The room temperature in the housing facility was maintained at 24°C, with a relative humidity of 60% and a 12-h light/dark cycle. Distilled water and sterilized food were available ad libitum. The mice were acclimated for a week. Injection of 2×10^6 WiT49 cells, suspended in 100μL of DMEM, into the left axilla of the mice was used to induce subcutaneous nephroblastoma xenograft tumors. Once the tumor volume reached 90–100 mm^3, the mice were segregated into four groups (n = 6 in each group). Except for one control group that was given PBS, three groups were given daily doses of ZSTK474 (MCE, China) at 25, 50, and 100 mg/kg over a two-week period. Tumor size and body weight of tumor-bearing mice were monitored throughout the study, and no mice died before meeting criteria for euthanasia. The mice were anaesthetised using 3% isoflurane, blood was taken from the eye socket and then executed by decapitation. Standard blood tests and serum analyses were performed to evaluate toxicity, focusing on liver, cardiac, and renal markers for tumor-bearing mice of each group. Tumor weights were recorded, and samples of various organs and tumors were collected for further analysis.
Fresh tumor samples were fixed in paraformaldehyde for 72 hours. The samples were processed through paraffin embedding and subsequently sectioned at a thickness of 4 μm. The subsequent procedures comprised hydration with xylene and alcohol, staining with hematoxylin and eosin, and dehydration through immersion in graded alcohol and xylene. Subsequently, images were acquired using light microscopy from Nikon, Japan.

WiT49 and WT-CLS1 cells [5] = experiment: Transwell cell invasiveness assay; type: cell-based; conditions: 24 and 48 hours
Protocol: The assessment of cell invasiveness was performed through a Transwell assay on plates coated with matrix gel. When seeded on plates, WiT49 and WT-CLS1 cells were positioned in the […] with a 10% FBS medium, while different concentrations of ZSTK474 in a serum-free medium were placed in the upper chamber. Cells were fixed and stained with crystal violet after 24 and 48 hours of treatment. Cell invasiveness was quantified using ImageJ software while observing under a light microscope.

WiT49 and WT-CLS1 cells [6] = experiment: TUNEL assay; type: cell-based; conditions: 48 hours, low, medium and high dose
Protocol: In WT cells, apoptosis-induced DNA damage was identified through TUNEL staining in the low, medium, and high-dose intervention groups. After a 12-hour incubation in 24-well plates, cells were treated with varying concentrations of ZSTK474 for 48 hours. The cells were then subjected to TUNEL staining according to the manufacturer’s instructions. The cell nuclei were counterstained with DAPI and then mounted utilizing an anti-fade mounting medium. The Nikon C2 microscope was employed for image acquisition.

WiT49 and WT-CLS1 cells [7] = experiment: Wound healing (scratch) cell migration assay; type: cell-based; conditions: 0, 24, 48 hours, serum-free medium
Protocol: WT cells (2×10^5 cells per well) were cultured in 6-well plates in a 5% CO2 environment at 37°C until confluence was achieved. A consistent wound was generated on the cellular surface, and any detached cells were eliminated using PBS. After this, WiT49 and WT-CLS1 cells were subjected to varying concentrations of ZSTK474 in a serum-free DEME medium. After a 48-hour incubation, cell migration was assessed at 0, 24, and 48 hours under a Nikon microscope. The scratch width measurement was performed using ImageJ.

[8] = tested on: WiT49 subcutaneous nephroblastoma xenograft tumors; experiment: Subcutaneous nephroblastoma xenograft tumor growth and tumor immunofluorescence; type: in vivo, BALB/C nude mice
Protocol: as §2, with “analysis. Following fixation in 4% paraformaldehyde for more than 24 hours, tumor tissues underwent dehydration and paraffin embedding and were then sectioned into 4-μm slices. The sections were then subjected to thermal antigen retrieval by treating them with sodium citrate buffer and subsequently exposing them to microwave radiation. Following dewaxing, the sections were blocked using 0.5% bovine serum albumin (BSA) and left to incubate with primary antibodies overnight at 4°C. […]” for “analysis.”

WiT49 cells [9] = experiment: CCK-8 cell proliferation assay (IC50); type: cell-based; conditions: 48-hour treatment
Protocol: as §1

WT-CLS1 cells [10] = experiment: CCK-8 cell proliferation assay (IC50); type: cell-based; conditions: 48-hour treatment
Protocol: as §1

WiT49 cells [11] = experiment: Annexin V apoptosis flow cytometry; type: cell-based; conditions: WiT49, 48 hours, IC50 dose
Protocol: (§3) The assessment of apoptosis was carried out using the Annexin V Apoptosis Kit (BDPharmingen, 5565547, USA). WiT49 and WT-CLS1 cells were cultured in 6-well plates for 12 hours. Subsequently, they were exposed to different concentrations of ZSTK474 for 48 hours and then analyzed using flow cytometry. FlowJo 10.8.1 software was utilized for data analysis.

WT-CLS1 cells [12] = experiment: Annexin V apoptosis flow cytometry; type: cell-based; conditions: WT-CLS1, 48 hours, IC50 dose
Protocol: as §3

WiT49 and WT-CLS1 cells [13] = experiment: Western blot of treated WT cells; type: cell-based
Protocol: The protein lysis solution containing 1% PMSF was used to lyse both WiT49 and WT-CLS1 cells treated with ZSTK474. After centrifugation at 12000g for 20 minutes, the protein content was quantified using a BCA assay kit (Thermo, China). Subsequently, 10 μg of protein underwent electrophoresis on a 6%-12.5% SDS-PAGE gel (EpiZyme, China) and was then transferred to a PVDF membrane (Millipore, ISEQ00010, USA) via semi-dry electrotransfer. After three TBST washes, the PVDF membranes were exposed to primary antibodies (Akt, MMP2, MMP9, PI3K, p-PI3K, p-Akt, PCNA, VEGF, P21, CyclinD, CDK4, GAPDH from ZENBIO, Chengdu, China; PIK3R3 from Proteintech, Wuhan, China) overnight at a 1:1000 dilution and 4°C. After being washed three times in TBST, the PVDF membrane was incubated with secondary antibodies (1:20000, ZENBIO, China) for one hour at room temperature. The Bio-RAD analyzer and Image Lab software were utilized for imaging and analysis.

WT-CLS1 cells [14] = experiment: RT-PCR of NRG4, CDKN1A, FGF18, PIK3R3, PDGFRB; type: cell-based; conditions: among the five genes
Protocol: Total RNA was extracted from WiT49 and WT-CLS1 cells utilizing TRIzol reagent (Invitrogen, CA, USA) and subsequently subjected to RT-PCR following the protocols of RTMasterMix (MCE, NJ, USA). Utilizing the SYBR Green RT-PCR Master Mix from MCE in NJ, USA, mRNA quantification was conducted on the Bio-Rad CFX ConnectTM Real-Time System. The relative expressions of NRG4, CDKN1A, FGF18, PIK3R3, and PDGFRB were measured using GAPDH as the internal reference gene.

## FC(F)c1nc2ccccc2n1-c1nc(N2CCOCC2)nc(N2CCOCC2)n1 [ZSTK474]
WiT49 and WT-CLS1 cells [1]
  percentage of cells in the G0/G1 phase: significant rise in the percentage of cells in the G0/G1 phase
WiT49 and WT-CLS1 cells [2]
  cell growth (proliferation curve): dose-dependent suppression of cell growth
[3]; by day 28
  weight loss: 14%
[3]; more than 28 days
  dermal toxicity: did not result in any dermal toxicity
  toxic damage to vital organs: no evidence of toxic damage to vital organs
[4]; 25 mg/kg daily
  ALT: 69.7(44.7–96.9)
  AST: 117.5 (95.8–153.7)
  BUN: 8.3(5.6–10.6)
  CK: 1084.2 (1029.0–1145.0)
  CRE: 13.0(11.0–15.0)
[4]; 50 mg/kg daily
  ALT: 62.6(48.1–88.2)
  AST: 126.1 (99.4–174.1)
  BUN: 7.7(5.1–10.8)
  CK: 1009.5 (793.0–1141.0)
  CRE: 12.7(11.0–14.0)
[4]; 100 mg/kg daily
  ALT: 60.6(50.4–76.5)
  AST: 130.4 (97.7–173.1)
  BUN: 7.3(5.1–10.1)
  CK: 952.5 (637.0–1135.0)
  CRE: 12.5(10.0–15.0)
[4]; 25, 50, 100 mg/kg daily
  hematological indices and organ pathology examination vs control: no notable variances
  post-administration body weight changes vs PBS control: no significant differences
WiT49 and WT-CLS1 cells [5]
  invasion capacity (Transwell): decrease in invasion capacity
WiT49 and WT-CLS1 cells [6]
  apoptosis-induced DNA damage (TUNEL): late apoptotic DNA damage response
WiT49 and WT-CLS1 cells [7]
  cell migration (scratch assay): reduced migration rates
[8]; 25, 50 and 100 mg/kg
  levels of PCNA, MMP2, MMP9 and VEGF in tumor tissues (immunofluorescence): markedly reduced
[8]; day 5, high-dose treatment group
  subcutaneous tumor volume vs control: initial reductions in tumor volume
[8]; day 11, treatment group
  subcutaneous tumor volume vs control: notable reduction in tumor volumes
WiT49 cells [9]
  pIC50: 5.70
WT-CLS1 cells [10]
  pIC50: 5.60
WiT49 cells [11]
  rise in apoptotic cells compared to the controls: 20%
WT-CLS1 cells [12]
  rise in apoptotic cells compared to the controls: below 10%
WiT49 and WT-CLS1 cells [13]; WT cells
  expression levels of PCNA, MMP2, MMP9 and VEGF (Western blot): lowered expression levels
  p-PI3K/PI3K and p-Akt/Akt (Western blot): reduced levels
WiT49 and WT-CLS1 cells [13]; WiT49 and WT-CLS1
  P21 expression (Western blot): elevation in P21 expression
  cyclin D and CDK4 levels (Western blot): reduction in cyclin D and CDK4 levels
WT-CLS1 cells [14]
  PIK3R3 RNA level (RT-PCR): most pronounced downregulation
